Measured values: patent EP4737457A1, “POLYSUBSTITUTED MACROCYCLIC COMPOUND, AND PREPARATION METHOD THEREFOR AND USE THEREOF” (Shenzhen Salubris Pharmaceuticals Co., Ltd., priority 2023, dated 2025)

Columns and labels:
[1] = target: T1, α-Chymotrypsin (Homo sapiens, UniProt P17538); test: Inhibition of Chymotrypsin by absorbance method (S-2586 substrate, 405 nm); assay type: biochemical; details: Inhibitory Effect of Compounds on Chymotrypsin; 37 °C for 30 minutes
T1 construct: α-Chymotrypsin (Sigma, Cat. No. C8946); purchased Sigma C8946
Experimental: • Enzyme: α-Chymotrypsin (Sigma, Cat. No. C8946) • Substrate: S-2586™ (Boatman Biotech, Cat. No. B2586) • Buffer: 0.05 M HEPES; 0.145 M NaCl; 5 mM KCl and 0.1% PEG 8000, pH 7.4
Test compounds dissolved in 100% DMSO at 10 mM were diluted with 100% DMSO to concentrations of 100 µM, 33.33 µM, 11.11 µM, 3.704 µM, 1.235 µM, 0.412 µM, 0.137 µM, and 0.046 µM. Then 29.4 µL of Chymotrypsin enzyme solution (20 nM) was added to each well of a 384-well plate, with 29.4 µL of buffer added to blank wells instead. Then, 0.6 µL of compound at different concentrations was added; DMSO was used instead for blank and control wells. The plate was mixed using a plate shaker and incubated at 37 °C for 30 minutes.
Finally, 30 µL of substrate at a concentration of 200 µM was added to each well, and the absorbance was measured at 405 nm.
Table 4. Inhibitory Effect of Compounds on Chymotrypsin

[2] = target: T2, Human Trypsin (Homo sapiens, UniProt P07477); test: Inhibition of Trypsin by absorbance method (S-2222 substrate, 405 nm); assay type: biochemical; details: Inhibitory Effect of Compounds on Trypsin; 37 °C for 30 minutes
T2 construct: purchased Sigma T6424
Experimental: • Enzyme: Human Trypsin (Sigma, Cat. No. T6424) • Substrate: S-2222™ (CHROMOGENIX, Cat. No. 82031639) • Buffer: 0.1 M sodium phosphate; 0.2 M NaCl and 0.5% PEG 8000, pH 7.4
Test compounds dissolved in 100% DMSO at 10 mM were diluted with 100% DMSO to concentrations of 10000 µM, 3333 µM, 1111 µM, 370.4 µM, 123.5 µM, 41.2 µM, 13.7 µM, and 4.6 µM. Then, 29.4 µL of Trypsin enzyme solution (0.8 nM) was added to each well of a 384-well plate, with 29.4 µL of buffer added to blank wells instead. Then, 0.6 µL of compound at different concentrations was added; DMSO was used instead for blank and control wells. The plate was mixed using a plate shaker and incubated at 37 °C for 30 minutes.
Finally, 30 µL of substrate at a concentration of 40 µM was added to each well, and the absorbance was measured at 405 nm.
Table 5. Inhibitory Effect of Compounds on Trypsin

[3] = target: T3, Human FIIa (Homo sapiens, UniProt P00734); test: Inhibition of coagulation factor FIIa by absorbance method (S-2366 substrate, 405 nm); assay type: biochemical; details: Inhibitory Effect of Compounds on Coagulation Factor FIIa; 37 °C for 30 minutes
T3 construct: Human FIIa (Enzyme Research Laboratories, Cat. No. HT 1002a); purchased Enzyme Research Laboratories HT 1002a
Experimental: Then 29.4 μL of FIIa enzyme solution (4 nM) was added to each well of a 384-well plate, with 29.4 μL of buffer added to blank wells instead. Then, 0.6 μL of compound at different concentrations was added; DMSO was used instead for blank and control wells. The plate was mixed using a plate shaker and incubated at 37 °C for 30 minutes. […] Table 6. Inhibitory Effect of Compounds on Coagulation Factor FIIa

[4] = target: Human Factor XIa (Homo sapiens, UniProt P03951); test: Inhibition of human coagulation Factor XIa by absorbance method (S-2366 substrate, 405 nm); assay type: biochemical; details: incubated at 37 °C for 20 minutes; substrate 800 µM; read-out: Recombinant Enzyme FXIa IC50
Experimental: • Enzyme: Human Factor XIa (ENZYME […], Cat. No. HFXIa 1111a) • Substrate: S-2366™ (CHROMOGENIX, Cat. No. 82109039) • Buffer: 145 mM NaCl, 5 mM KCl, 1 mg/mL PEG 8000, 30 mM HEPES, pH 7.4.
Test compounds dissolved in 100% DMSO at 10 mM were diluted with 100% DMSO to concentrations of 1000 µM, 200 µM, 40 µM, 8 µM, 1.6 µM, 0.32 µM, 0.064 µM, 0.0128 µM, 0.00256 µM, and […]. Then 98 µL of FXIa enzyme solution (77.7 ng/mL) was added to each well of a 96-well plate, with 98 µL of buffer added to blank wells instead. Then, 2 µL of compound at different concentrations was added; DMSO was used instead for blank and control wells. The plate was mixed using a plate shaker and incubated at 37 °C for 20 minutes.
Finally, 100 µL of substrate (800 µM) was added to each well, and the absorbance was measured at 405 nm.
Curve fitting was performed using GraphPad Prism software to calculate the IC50 values.

[5] = test system: Pooled human plasma; test: In vitro anticoagulant effect in human plasma (aPTT, EC1.5x); assay type: biochemical; details: 37 °C for 10 minutes
Experimental: aPTT (Lot 220106600), Calcium Chloride (Lot 210305600), Needle Rinse Solution (Lot 211101300): produced by Shenzhen Mindray Bio-Medical Electronics Co., Ltd. Pooled human plasma: collected from healthy individuals using disposable venous blood collection tubes (Liuyang Sanli Medical Technology Development Co., Ltd., Lot 211108, sodium citrate 9:1). Blood was collected, centrifuged at room temperature at 3000 rpm for 10 minutes, and the supernatant was collected and stored for use (Lot 20220606).
Test compounds dissolved in 100% DMSO at 10 mM were diluted with 100% DMSO to concentrations of 0.29 µM, 0.59 µM, 1.17 µM, 2.34 µM, 4.69 µM, 9.38 µM, 18.75 µM, and 37.50 µM. Then 99 µL of pooled human plasma was added to each 1.5 mL centrifuge tube, followed by the addition of 1 µL of compound at different concentrations; 1 µL of DMSO was added to the blank control. The tubes were mixed by repeated manual inversion, centrifuged briefly using a mini centrifuge to collect the samples, and then incubated in a thermostatic water bath at 37 °C for 10 minutes with mixing. The aPTT was measured using a fully automated coagulation analyzer according to the preset program.
Curve fitting was performed using GraphPad Prism software to calculate EC1.5x.

[6] = Pharmacokinetic experiment in rats (iv and PO); details: male, Sprague-Dawley (SD), rat, plasma, 5 mg/kg
From the text: (§1) Polyethylene glycol 400 (PEG-400, Lot GORKREUT, Shaen Chemical Technology (Shanghai) Co., Ltd.), DMSO (Lot 20200319, Guangdong Guanghua Sci-Tech Co., Ltd.), normal saline (Lot C20052604, Jiangxi Kelun Pharmaceutical Co., Ltd.). LC-MS instrument (Thermo Fisher Ultimate 3000 UPLC, TSQ QUANTUM ULTRA triple quadrupole mass spectrometer, AB SCIEX 5500 QTARP).
(§2) SD rats: Male, 180-250 g, purchased from Guangdong Vital River Laboratory Animal Technology Co., Ltd.
(§3) The test compound powder was accurately weighed, completely dissolved in DMSO, then PEG-400 was added. The mixture was vortexed and sonicated to mix, followed by the addition of normal saline. The mixture was vortexed and sonicated again to achieve a final concentration of 0.5 mg/mL (DMSO:PEG-400:NS = 5:60:35, V/V/V). The dosing volume was 10 mL/kg for oral gavage and 0.5 mL/kg for intravenous administration.
(§4) After intravenous or oral administration to rats, 200 µL of venous blood was collected at 5 min (not collected for oral group), 15 min, 30 min, 1 h, 2 h, 5 h, 7 h, and 24 h into heparinized EP tubes. The blood was centrifuged at 12,000 rpm for 2 minutes, and the plasma was collected and stored at -80 °C until analysis.
(§5) A precise amount of the test compound was weighed and dissolved in DMSO to 1 mg/mL as a stock solution. An appropriate volume of the compound stock solution was accurately pipetted and diluted with acetonitrile to prepare standard series solutions. 20 µL of each standard series solution was accurately pipetted and added to 180 µL of blank plasma, vortexed to mix, to prepare plasma samples equivalent to plasma concentrations of 1 ng/mL, 3 ng/mL, 10 ng/mL, 30 ng/mL, 100 ng/mL, 300 ng/mL, 1000 ng/mL, 3000 ng/mL, and 5000 ng/mL. Each concentration was analyzed in duplicate to establish the standard curve. 20 µL of plasma sample was taken, and 200 µL of an internal standard (propranolol, 5 ng/mL) in acetonitrile solution was added. The mixture was vortexed and centrifuged at 4000 rpm for 5 minutes. The supernatant was taken for LC-MS analysis. The LC-MS detection conditions were as follows: Chromatographic Column: Waters ACQUITY™ PREMIER HSS T3, 50*2.1 mm, 1.8 µm.
(§6) Mobile phase A: water (0.1% formic acid), mobile phase B: acetonitrile, flow rate: 0.5 mL/min, gradient elution: see Table 2 below.
(§7) After determining the plasma drug concentration by LC-MS, the pharmacokinetic parameters following administration to rats were calculated using the non-compartmental model in WinNonlin 6.1 software.

[7] = in vivo; details: male, Sprague-Dawley (SD), rat
From the text: as §1, §2, §3, §4, §5, §6, §7

T1 sequence (P17538 34-164 limits assumed, other chains not shown): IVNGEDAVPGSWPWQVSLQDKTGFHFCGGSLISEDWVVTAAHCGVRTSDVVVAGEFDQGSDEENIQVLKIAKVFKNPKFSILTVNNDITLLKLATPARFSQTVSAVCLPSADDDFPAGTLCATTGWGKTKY
T1 sequence (P17538 167-263 limits assumed, other chains not shown): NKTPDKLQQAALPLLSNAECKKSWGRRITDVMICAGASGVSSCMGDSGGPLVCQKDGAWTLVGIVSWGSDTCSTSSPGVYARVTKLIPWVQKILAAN
Chain of Human Factor XIa (P03951 388-625 limits assumed): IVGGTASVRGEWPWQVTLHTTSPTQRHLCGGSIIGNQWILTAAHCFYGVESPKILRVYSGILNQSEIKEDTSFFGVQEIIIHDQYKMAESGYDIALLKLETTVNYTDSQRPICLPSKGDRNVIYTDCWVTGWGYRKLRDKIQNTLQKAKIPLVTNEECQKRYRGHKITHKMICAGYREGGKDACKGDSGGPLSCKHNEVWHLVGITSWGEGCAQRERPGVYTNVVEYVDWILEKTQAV
Chain of Human Factor XIa (P03951 19-387 partner limits assumed): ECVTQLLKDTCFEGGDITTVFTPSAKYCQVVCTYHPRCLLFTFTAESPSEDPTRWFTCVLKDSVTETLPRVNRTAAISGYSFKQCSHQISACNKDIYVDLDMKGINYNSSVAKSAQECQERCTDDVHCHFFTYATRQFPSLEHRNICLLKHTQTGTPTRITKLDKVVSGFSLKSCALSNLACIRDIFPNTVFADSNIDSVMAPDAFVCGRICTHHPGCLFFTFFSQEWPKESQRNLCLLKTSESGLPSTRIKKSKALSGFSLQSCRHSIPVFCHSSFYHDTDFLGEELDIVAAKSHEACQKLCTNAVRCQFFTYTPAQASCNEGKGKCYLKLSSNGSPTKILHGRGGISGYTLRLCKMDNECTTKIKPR

Compound | IC50 [1] [µM] | IC50 [2] [µM] | IC50 [3] [µM] | IC50 [4] [µM] | bioavailability [6] [%] | Human Plasma APTT 1.5x [5] [µM] | bioavailability [7] [%]
[2H]C([2H])([2H])n1ncc2c1-c1cc(F)c(F)c(c1)[C@@H](n1cnc(-c3cc(Cl)ccc3-n3cc(Cl)nn3)cc1=O)CCC[C@@H](C)C(=O)N2 [Compound 1, (3S,7R)-3-(4-(5-chloro-2-(4-chloro-1H-1,2,3-triazol-1-yl)phenyl)-6-oxopyrimidin-1(6H)-yl)-2^4,2^5-difluoro-7-methyl-1^1-(methyl-d3)-1^1H-9-aza-1(5,4)-pyrazola-2(1,3)-benzenacyclononaphan-8-one] | 0.411 | 0.225 | 5.63 | 0.00024 | – | – | –
[2H]C([2H])([2H])n1ncc2c1-c1cc(F)c(F)c(c1)[C@@H](n1cnc(-c3c(-n4cc(C(F)(F)F)nn4)ccc(Cl)c3F)cc1=O)CCC[C@@H](C)C(=O)N2 [Compound 4, (3S,7R)-3-(4-(3-chloro-2-fluoro-6-(4-(trifluoromethyl)-1H-1,2,3-triazol-1-yl)phenyl)-6-oxopyrimidin-1(6H)-yl)-2^4,2^5-difluoro-7-methyl-1^1-(methyl-d3)-1^1H-9-aza-1(5 ,4)-pyrazola-2(1,3)-benzenacyclononaphan-8-one] | 0.173 | 0.355 | – | 0.00062 | 19 | 0.20 | –
C[C@@H]1CCC[C@H](n2cnc(-c3cc(Cl)ccc3-n3cc(C(F)(F)F)nn3)cc2=O)c2cc(cc(F)c2F)-c2c(cnn2C(F)F)NC1=O [Compound 12, (3R,7R)-3-(4-(5-chloro-2-(4-(trifluoromethyl)-1H-1,2,3-triazol-1-yl)phenyl) -6-oxopyrimidin-1(6H)-yl)-24,2^5-difluoro-7-methyl-1^1-difluoromethyl-1^1H-9-aza-1(5,4)-pyr azola-2(1,3)-benzenacyclononaphan-8-one] | – | – | – | 0.00031 | – | 0.28 | 29.4
[2H]C([2H])([2H])n1ncc2c1-c1cc(cc(F)c1F)[C@@H](n1cnc(-c3cc(Cl)ccc3-n3cc(Cl)nn3)cc1=O)CCC[C@@H](C)C(=O)N2 [Compound 17, (3S,7R)-3-(4-(5-chloro-2-(4-chloro-1H-1,2,3-triazol-1-yl)phenyl)-6-oxopyrimidin-1(6H)-yl)-2^5,2^6-difluoro-7-methyl-1^1-(methyl-d3)-1^1H-9-aza-1(5,4)-pyrazola-2(1,3)-benzenacyclononaphan-8-one] | 0.391 | 0.322 | 6.92 | 0.00036 | 59.6 | 0.04 | –
[2H]C([2H])([2H])n1ncc2c1-c1cc(cc(F)c1F)[C@@H](n1cnc(-c3cc(Cl)ccc3-n3cc(C(F)(F)F)nn3)cc1=O)CCC[C@@H](C)C(=O)N2 [Compound 18, (3S,7R)-3-(4-(5-chloro-2-(4-(trifluoromethyl)-1H-1,2,3-triazol-1-yl)phenyl) -6-oxopyrimidin-1(6H)-yl)-2^5,2^6-difluoro-7-methyl-1^1-(methyl-d3)-1^1H-9-aza-1(5,4)-pyrazola-2(1,3)-benzenacyclononaphan-8-one] | 0.223 | 0.627 | 11.1 | – | 21.9 | – | –

The next lines start with results.

IC50 [1] [µM] | IC50 [2] [µM] | IC50 [3] [µM] | IC50 [4] [µM] | bioavailability [6] [%] | Compound | Human Plasma APTT 1.5x [5] [µM] | bioavailability [7] [%]
0.0792 | 0.0831 | 3.14 | – | – | [2H]C([2H])([2H])n1ncc2c1-c1cccc(c1)[C@@H](n1cnc(-c3cc(Cl)ccc3-n3cc(Cl)nn3)cc1=O)CCC[C@@H](C)C(=O)N2 [Comparative compound 2, reference compound] | – | –
0.103 | 0.11 | 2.15 | – | – | [2H]C([2H])([2H])n1ncc2c1-c1cc(F)cc(c1)[C@@H](n1cnc(-c3cc(Cl)ccc3-n3cc(Cl)nn3)cc1=O)CCC[C@@H](C)C(=O)N2 [Comparative compound 3, reference compound] | – | –
0.164 | 0.219 | 9.21 | 0.0004 | 44.5 | [2H]C([2H])([2H])n1ncc2c1-c1cc(cc(F)c1F)[C@@H](n1cnc(-c3c(-n4cc(C(F)(F)F)nn4)ccc(Cl)c3F)cc1=O)CCC[C@@H](C)C(=O)N2 [Compound 16, (3S,7R)-3-(4-(3-chloro-2-fluoro-6-(4-(trifluoromethyl)-1H-1,2,3-triazol-1-yl)phenyl)-6-oxopyrimidin-1(6H)-yl)-2^52^6-difluoro-7-methyl-1^1-(methyl-d3)-1^1H-9-aza-1(5,4)-pyrazola-2(1,3)-benzenacyclononaphan-8-one] | 0.31 | –
